From patent US12178846B2, “Methods of using gap junctions as therapeutic targets for the treatment of degenerative disorders of the retina” (The Research Foundation for The State University of New York, priority 2014, dated 2024)
“Also recorded” adds a separate entry of the source.

Columns and labels:
[1] = tested on: NMDA receptors; settings: at the concentrations tested here; cited from earlier work
[2] = tested on: ischemic retina; assay: Transient in vivo retinal ischemia-reperfusion (raised IOP), 7 days reperfusion; design: species or system mouse
Experimental: Various methods were employed to produce cell death. (1) Single cell apoptosis: CytC was injected into individual RGCs or Müller cells for 15 minutes after which retinas were incubated for 4 hours in oxygenated Ames medium before fixation. After streptavidin histology, apoptotic cells were detected with an anti-active caspase 3 antibody or with Terminal deoxynucleotidyl transferase dUTP nick end labeling (TUNEL) staining. (2) Excitotoxicity: To assess the contribution of GJs to cell death within populations of RGCs and amacrine cells we conducted parallel experiments in which retinas were preincubated for 20 minutes in normal Ames medium or in one containing the GJ blockers meclofenamic acid (MFA; 50 μM) or 18-beta-glycyrrhetinic acid (18Beta-GA; 25 μM). Both control and drug-treated retinas were then exposed for 1 hour to NMDA (100-300 μM) to induce excitotoxicity followed by 4 hours in the control Ames solution. (3) Retinal ischemia: Transient in vivo retinal ischemia was induced by introducing into the anterior chamber a 33-gauge needle attached to a saline-filled reservoir (0.9% sodium chloride) that was raised above the animal so as to increase intraocular pressure (IOP) to a level […]. MFA (2 μl, 500 μM) was administered intravitreally either 30 minutes before or 3 and 24 hours following the ischemic insult. The opposite eye was cannulated, but maintained at normal IOP to serve as a normotensive control. After 40-50 minutes, the needle was withdrawn and ischemia was evidenced by corneal whitening. After 7 days of reperfusion, mice were sacrificed and eyes were processed to assess retinal damage and neuronal death. We also employed oxygen-glucose deprivation (OGD) to induce in vitro ischemia, in which retina-eyecups or isolated retinal whole-mounts were exposed continuously to either a control, oxygenated Ringer solution, or one that was glucose-free and deoxygenated by bubbling extensively with 95% N2/5% CO2 at 34° C. Following 60 minutes in the OGD environment, retinas were transferred to a control, oxygenated Ames medium for 4 hours before processing to evaluate cell death. Apoptotic and necrotic cell death were assessed by cell counts following: (1) staining with Live/Death Viability Assay (calcein AM/ethidium homodimer (EthD) (Invitrogen); (2) TUNEL, or, (3) labeling for activated caspase 3. For population studies, dead cells were counted manually within 500×500 μm areas (5 areas per retina) from micrographs of whole-mounts using images acquired by confocal microscope. Nuclear cell counts were made per unit length (500 μm) of frozen retinal cross-sections labeled with propidium iodide (2 μg/ml). In some experiments, cells counts were limited to retrograde labeled RGCs in the GCL or certain subpopulation of amacrine cells, identified by specific markers, such as calretinin (CR), calbindin (CB) and choline acetyltransferase (ChAT) in the INL. Fluorescence intensity measures were made of glial fibrillary acidic protein (GFAP), which is overexpressed in Müller glial cells following retinal injury. Expression of GFAP and connexins were quantified by analysis of confocal images with Metavue software (Molecular Devices). Average pixel fluorescence intensities were measured by using uniform rectangular areas (3-5 per image) extending either from the GCL to the outer limiting membrane for GFAP or through the IPL for connexins. The intensity values were then averaged for at least 5 images from 3-5 independent experiments and data were normalized to controls.

[3] = tested on: GJs; assay: Retrograde Neurobiotin labeling of amacrine cells coupled to RGCs; type: cell-based, mouse
Experimental: After experimental treatment, retinas were fixed with 4% paraformaldehyde in a 0.1 M phosphate buffer solution (PBS; pH 7.4) for 30 minutes at room temperature, cryoprotected in 30% sucrose, embedded in Tissue-Tek OCT Compound (Andwin Scientific) and frozen. Cryosections (18-20 μm thick) were cut and mounted on microscope slides. For immunostaining, sections were blocked in 3% donkey serum in 0.1M PBS supplemented with 0.5% Triton X-100, and 0.1% NaN3 for 1 h at room temperature. Primary antibodies were diluted in 0.1M PBS with 0.5% Triton X-100, 0.1% NaN3 and 1% donkey or goat serum. Tissues were then incubated with primary antibodies for 3 hours at room temperature or overnight at 4° C. The following primary antibodies were used: rabbit anti-calretinin 1:2000, rabbit anti-calbindin 1:1000, goat ant-ChAT 1:100 (all from Millipore), rabbit anti-GFAP 1:1000 (Invitrogen), rabbit anti-active caspase 3 1:200 (Abcam); mouse anti-Cx35/36 1:300, mouse anti-Cx45 1:300 (both from Millipore). After extensive washing with 0.1M PBS, tissues were incubated for 1 hour in secondary anti-goat/rabbit/mouse antibodies conjugated to Alexa-488 or Alexa-594 (1:200, Molecular Probes). Retinal sections were counterstained with the nuclear dye propidium iodide (PI, Molecular Probes). Neurobiotin was visualized with Alexa-488/594 conjugated streptavidin (Molecular Probes, 1:200). Tissues were then flat-mounted in Vectashield media (Vector Labs) and fluorescent images were taken using a fluorescent microscope or an Olympus FV1200 MPE confocal microscope.
We used retrograde labeling of RGCs with Neurobiotin to visualize populations of amacrine cells in the inner nuclear layer (INL) to which they were coupled. Globes with attached optic nerves were submersed in oxygenated Ames medium and a drop of Neurobiotin (4% in 0.1 M Tris buffer) was applied to the cut optic nerve for 40 minutes. For retrograde labeling limited to RGCs, Neurobiotin was replaced with Lucifer yellow (LY, 3%). […]

[4] = MFA 500 μM, 2 μl intravitreal 30 min before ischemic insult
[5] = MFA intravitreal 3 and 24 hours after transient ischemia, measured one week after insult, p<0.01
[6] = MFA, transient ischemia, p<0.001

SMILES: Cc1ccc(Cl)c(Nc2ccccc2C(=O)O)c1Cl [MFA, meclofenamic acid]
- inhibitory effect on NMDA receptors in neurons [1]: no inhibitory effect
- cell counts in the GCL [2, 4]: preserved
- retinal thickness / retinal morphology [2, 4]: preserved; also recorded: prevented changes
- GFAP expression [2, 5]: maintenance of normal levels
- cell counts in the GCL [2, 5]: maintenance of normal levels; also recorded: significantly limit
- retinal thickness [2, 5]: maintenance of normal levels
- number of ChAT-positive ACs in the INL ([2]; MFA, ischemic retinas, p>0.1): no effect
- number of CB-immunoreactive ACs in the INL [2, 6]: prevented the loss; also recorded: largely prevented a reduction
- number of CR-immunoreactive ACs in the INL [2, 6]: prevented the loss
- number of ChAT-positive ACs labeled with Neurobiotin ([3]; MFA application, p>0.1): did not produce a significant reduction; also recorded: little effect
- Neurobiotin labeling of CR-positive ACs in the INL (coupling to RGCs) ([3]; MFA prior to retrograde labeling, p<0.01): effectively eliminated all colocalized labeling; also recorded: significantly reduced
- total number of CR-IR cells in the INL (per 500 μm section) ([3]; MFA-treated retinas vs control, p>0.1): comparable to that in control
